This note sets out measurements from patent US5886011A, “Piperidine derivatives as substance P antagonists” (Hisamitsu Pharmaceutical Co., Inc., priority 1995, dated 1999).

Structures can show the parent of a compound that is named as a salt. Where two headings read alike, the source gives them in different places.

Assay [1] concerns the target T1, Substance P receptor (guinea pig ileum longitudinal muscle) (Cavia porcellus, UniProt P30547).
T1 construct: ileum was removed and the longitudinal muscle was stripped off; from tissue; host or cells: guinea pig ileum longitudinal muscle, washed membrane pellets
In words: Receptor-binding test ([125I]SP ligand, guinea pig ileum longitudinal muscle receptor samples). The conditions noted are these: 10^-8 M compound; [125I]SP 50 pM, 22° C., 20 minutes. Here is the method: To the longitudinal muscles, 20 times of the wet weight of the buffer solution (1) (50 mM tris-HCl buffer solution containing 2 mM MgCl2 and 0.1 mM phenyl methyl sulfonyl-fluoride, pH 7.4) was added. The mixture was homogenized under ice-cooling and centrifuged at 48,000×G for 15 minutes. After removing the supernatant, the pellets were re-suspended in the buffer solution (1) and centrifuged at 48,000×G for 15 minutes. The buffer solution (2) (50 mM tris.HCl buffer solution containing 10 mM ethylenediaminetetraacetic acid and 300 mM KCl, pH 7.4) was added to the pellets and suspended to be reacted under ice-cooling for 60 minutes. The resulted reaction materials were centrifuged at 48,000×G for 15 minutes. After suspending the pellets in the buffer solution (1) and distributing, the mixture were centrifuged at 48,000×G for 15 minutes. The pellets were stored at -80° C. until used as receptor samples.
Thus obtained receptor samples were suspended in 50 mM tris-HCl buffer solution to be used. As the buffer solution, binding buffer solution (tris.HCl buffer solution containing 0.02% bovine serum albumin, 40 μg/ml bacitracin, 4 μg/ml chymostatin, 4 μg/ml leupeptin and 3 mM MnCl2, pH7.4) was used.

The test system of assay [2] is Substance P (guinea pig ileum). In words: Bioassay test: Substance P-induced contraction of guinea pig ileum strips. The settings on record: 10^-7 M compound; contraction by 10^-8 M Substance P regarded as 100%. Here is the method:
B. Bioassay Test […] After exsanguinating guinea pigs (body weight: 500-600 g) deadly, ileum was removed and 2 cm of ileum strips were prepared. In a Tyrode's solution (10 ml, 37° C.) in which air is passed, containing 5.2 μM atropine and 4.1 μM indomethacin, the strips having 0.5 g resting tension was suspended, and contractions of muscle were recorded on a recording device (RTA-1200, manufactured by Nihon Kohden) via an isotonic transducer (TB-612T, manufactured by Nihon Kohden). Using three specimens per one group, effects of the subject drugs on the muscle contraction caused by 10^-8 M Substance P were determined.

The next assay relates to Substance P. In words: Antagonism test on Substance P-induced airway edema. The settings on record: Cavia porcellus, po, read-out: Inhibition Rate (airway edema, dye transudated into trachea and main bronchi). The format is in vivo, guinea pig (hartley male). Here is the method: C. Antagonism Test on Substance P-induced Airway Edema
20 mg/kg of Evans' Blue and 1 nm/kg Substance P containing 200 I.U./kg of heparin were administered intravenously to hartley male guinea pigs in order to induce airway edema. After ten minutes, the guinea pigs were exsanguinated deadly. The amounts of the dye transudated into trachea and main bronchi were determined. 1 mg/kg of the subject compounds were administered orally at thirty minutes before the induction. […] Further, for comparison, the following compounds A and B were used.

Where [3] appears, read: 1 mg/kg orally, thirty minutes before induction, compared to the control group.

T1 sequence (P30547 whole entry): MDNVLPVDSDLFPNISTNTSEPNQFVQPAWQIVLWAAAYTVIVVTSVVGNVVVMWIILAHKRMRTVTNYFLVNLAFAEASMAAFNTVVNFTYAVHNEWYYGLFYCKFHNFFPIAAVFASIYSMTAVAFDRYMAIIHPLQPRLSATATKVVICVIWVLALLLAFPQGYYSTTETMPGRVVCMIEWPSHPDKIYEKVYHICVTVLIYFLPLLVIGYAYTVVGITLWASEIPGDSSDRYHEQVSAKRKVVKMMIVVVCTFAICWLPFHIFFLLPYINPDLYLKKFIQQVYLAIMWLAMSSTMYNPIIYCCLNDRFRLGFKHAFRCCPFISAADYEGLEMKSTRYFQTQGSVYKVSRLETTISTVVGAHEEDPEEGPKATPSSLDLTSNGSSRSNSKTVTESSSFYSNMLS

In the case of `CC1Cc2cccc(CN[C@H]3CCCN[C@H]3c3ccccc3)c2O1.Cl` (single isomer, unassigned) [Example 3, hydrochloride], the inhibition at 0.01 µM in assay [1] came out at 96%.
On to `CC1Cc2cccc(CN[C@H]3CCCN[C@H]3c3ccccc3)c2O1.Cl` (single isomer, unassigned) [Example 3], for which the “Contriction Inhibition” value in assay [2] is 93.2%.
On to `COc1ccc(OC(F)(F)F)cc1CN[C@H]1CCCN[C@H]1c1ccccc1` [Compound B, (2S,3S)-3-(2-methoxy-5-trifluoromethoxybenzyl)amino-2-phenylpiperidine hydrochloride, reference compound], for which the inhibition in vivo at 1 mg/kg in the assay on Substance P stood at 44%.
With `CC1(C)Cc2cccc(CN[C@H]3CCCN[C@H]3c3ccccc3)c2O1.Cl` [Example 2, (2S,3S)-3-[(2,2-dimethyl-2,3-dihydrobenzofuran-7-yl)methyl]amino-2-phenylpiperidine hydrochloride], at 0.01 µM the inhibition in assay [1] was 74.8%. The “Contriction Inhibition” value in assay [2] stood at 47.0%.
The compound `CC1(C)Cc2cc([N+](=O)[O-])cc(CN[C@H]3CCCN[C@H]3c3ccccc3)c2O1.Cl` [Example 4, (2S,3S)-3-[(2,2-dimethyl-5-nitro-2,3-dihydrobenzofuran-7-yl)methyl]amino-2-phenylpiperidine hydrochloride] showed an inhibition at 0.01 µM in assay [1] of 89.7%. Besides, the “Contriction Inhibition” value in assay [2] came to 60.2%.
Taken in the same sequence, the figures for `CSc1cc(CN[C@H]2CCCN[C@H]2c2ccccc2)c2c(c1)CC(C)(C)O2.Cl` [Example 5, (2S,3S)-3-[(2,2-dimethyl-5-methylthio-2,3-dihydrobenzofuran-7-yl)methyl]amino-2-phenylpiperidine hydrochloride] were 91.8% and 80.5%.
In the case of `CC1(C)Cc2cc(S(C)(=O)=O)cc(CN[C@H]3CCCN[C@H]3c3ccccc3)c2O1.Cl` [Example 6, (2S,3S)-3-[(2,2-dimethyl-5-methylsulfonyl-2,3-dihydrobenzofuran-7-yl)methyl]amino-2-phenylpiperidine hydrochloride], testing at 0.01 µM in assay [1] gave an inhibition of 74.8%. Moreover, in assay [2], the “Contriction Inhibition” value was 50.9%.
In assay [1], `CN(C)S(=O)(=O)c1cc(CN[C@H]2CCCN[C@H]2c2ccccc2)c2c(c1)CC(C)(C)O2.Cl` [Example 7, (2S,3S)-3-[(2,2-dimethyl-5-dimethylaminosulfonyl-2,3-dihydrobenzofuran-7-yl)methyl]amino-2-phenylpiperidine hydrochloride] had an inhibition at 0.01 µM of 54%. In assay [2], the “Contriction Inhibition” value is 15.0%.
`CC1Cc2cc(S(=O)(=O)N(C)C)cc(CN[C@H]3CCCN[C@H]3c3ccccc3)c2O1` (stereo partly drawn) [Example 8, (2S,3S)-3-[(5-dimethlaminosulfonyl-2-methyl-2,3-dihydrobenzofuran-7-yl)methyl]amino-2-phenylpiperidine hydrochloride]: the inhibition at 0.01 µM in assay [1] came out at 92%. In addition, in assay [2], the “Contriction Inhibition” value stood at 85.0%.
The compound `Cl.c1ccc([C@@H]2NCCC[C@@H]2NCc2ccc3c(c2)OCO3)cc1` [Example 9, (2S,3S)-3-(3,4-methylenedioxybenzyl)amino-2-phenylpiperidine hydrochloride] showed an inhibition at 0.01 µM in assay [1] of 36.6%. The “Contriction Inhibition” value in assay [2] was determined as 5.5%.
In the case of `c1ccc([C@@H]2NCCC[C@@H]2NCc2cccc3c2OCCC3)cc1` [Example 10, (2S,3S)-3-[(3,4-dihydro-1,2-benzopyran-8-yl)methyl]amino-2-phenylpiperidinehydrochloride], 0.01 µM produced 86.2% inhibition in assay [1]. Also, in assay [2], the “Contriction Inhibition” value stood at 61.8%.
In turn, `CC1(C)Cc2cc(Cl)cc(CN[C@H]3CCCN[C@H]3c3ccccc3)c2O1.Cl` [Example 11, (2S,3S)-3-[(5-chloro-2,2-dimethyl-2,3-dihydrobenzofuran-7-yl)methyl]amino-2-phenylpiperidine hydrochloride] registered an inhibition at 0.01 µM in assay [1] of 85.8%. For the same compound, the “Contriction Inhibition” value in assay [2] is recorded as 58.2%.
On to `COc1cc(CN[C@H]2CCCN[C@H]2c2ccccc2)c2c(c1)CC(C)(C)O2` [Example 12, (2S,3S)-3-[(2,2-dimethyl-5-methoxy-2,3-dihydrobenzofuran-7-yl)methyl]amino-2-phenylpiperldine hydrochloride], for which testing at 0.01 µM in assay [1] gave an inhibition of 82.2%. For the same compound, in assay [2], the “Contriction Inhibition” value worked out at 43.0%.
`Cl.c1ccc([C@@H]2NCCC[C@@H]2NCc2cccc3c2OCC3)cc1` [Example 13, (2S,3S)-3-[(2,3-dihydrobenzofuran-7-yl)methyl]amino-2-phenylpiperidine hydrochloride]: at 0.01 µM the inhibition in assay [1] was 84.7%. For the same compound, the “Contriction Inhibition” value in assay [2] was 47.4%.
Taken in the same sequence, the figures for `CC1Cc2cc(Cl)cc(CN[C@H]3CCCN[C@H]3c3ccccc3)c2O1.Cl` (stereo partly drawn) [Example 14, (2S,3S)-3-[(5-chloro-2-methyl-2,3-dihydrobenzofuran-7-yl)methyl]amino-2-phenylpiperidine hydrochloride] were 93.5% and 92.3%.
In the case of `COc1cc(CN[C@H]2CCCN[C@H]2c2ccccc2)c2c(c1)CC(C)O2.Cl` (stereo partly drawn) [Example 15, (2S,3S)-3-[(5-methoxy-2-methyl-2,3-dihydrobenzofuran-7-yl)methyl]amino-2-phenylpiperidine hydrochloride], testing at 0.01 µM in assay [1] gave an inhibition of 88.1%. For the same compound, the “Contriction Inhibition” value in assay [2] came out at 75.2%.
In assay [1], `Cc1ccc(CN[C@H]2CCCN[C@H]2c2ccccc2)c2c1CC(C)(C)O2` [Example 16, (2S,3S)-3-[2,2,4-trimethyl-2,3-dihydrobenzofuran-7-yl)methyl]amino-2-phenylpiperidine hydrochloride] registered an inhibition at 0.01 µM of 82.5%. The “Contriction Inhibition” value in assay [2] is 78.3%.
Taken in the same sequence, the figures for `Cc1cc(CN[C@H]2CCCN[C@H]2c2ccccc2)c2c(c1)CC(C)(C)O2.Cl` [Example 17, (2S,3S)-3-[(2,2,5-trimethyl-2,3-dihydrobenzofuran-7-yl)methyl]amino-2-phenylpiperidine hydrochloride] were 94.2% and 94.6%.
Consider `CC1(C)Cc2c(Cl)ccc(CN[C@H]3CCCN[C@H]3c3ccccc3)c2O1.Cl` [Example 18, (2S,3S)-3-[(4-chloro-2,2-dimethyl-2,3-dihydrobenzofuran-7-yl)methyl]amino-2-phenylpiperidine hydrochloride], for which, in assay [1], the inhibition at 0.01 µM turned out to be 89.9%. For the same compound, the “Contriction Inhibition” value in assay [2] is 81.2%.
In turn, `Cl.c1ccc([C@@H]2NCCC[C@@H]2NCc2ccc3c(c2)OCCO3)cc1` [Example 19, (2S,3S)-3-(3,4-ethylenedioxybenzyl)amino-2-phenylpiperidine hydrochloride] yielded an inhibition at 0.01 µM in assay [1] of 48.7%. The “Contriction Inhibition” value in assay [2] is listed as 22.1%.
On to `CC1Oc2c(CN[C@H]3CCCN[C@H]3c3ccccc3)cccc2C1C.Cl` (stereo partly drawn) [Example 20, (2S,3S)-3-[(2,3-dimethyl-2,3-dihydrobenzofuran-7-yl)methyl]amino-2-phenylpiperidine hydrochloride], for which, in assay [1], at 0.01 µM the inhibition was 65%. In assay [2], the “Contriction Inhibition” value is 38.9%.
Compound `Cc1ccc(CN[C@H]2CCCN[C@H]2c2ccccc2)c2c1C(C)C(C)O2.Cl` (stereo partly drawn) [Example 21, (2S,3S)-3-[(2,3,4-trimethyl-2,3-dihydrobenzofuran-7-yl)methyl]amino-2-phenylpiperidine hydrochloride] yielded an inhibition at 0.01 µM in assay [1] of 53.1%. Also, the “Contriction Inhibition” value in assay [2] is recorded as 13.4%.
For the compound `CC(C)(C)c1cc2c(c(CN[C@H]3CCCN[C@H]3c3ccccc3)c1)OCC2.Cl` [Example 24, (2S,3S)-3-[(5-tert-butyl-2,3-dihydrobenzofuran-7-yl)methyl]amino-2-phenylpiperidine hydrochloride], testing at 0.01 µM in assay [1] gave an inhibition of 50.3%. The “Contriction Inhibition” value in assay [2] was determined as 69.5%. Moreover, the inhibition in vivo at 1 mg/kg in the assay on Substance P (setting [3]) was 64%.
For `Cl.c1ccc([C@@H]2NCCC[C@@H]2NCc2cc(C3CCCCC3)cc3c2OCC3)cc1` [Example 26, (2S,3S)-3-[(5-cyclohexyl-2,3-dihydrobenzofuran-7-yl)methyl]amino-2-phenylpiperidine hydrochloride] the same measures were 56.4%, 62.1% and 61%.
